Measurements from patent publication US20240247021A1, “CRYSTAL FORMS OF KUDING SAPONIN A COMPOUND, PHARMACEUTICAL COMPOSITION AND USE THEREOF” (SHANGHAI KE PHARMACEUTICAL CO., LTD, priority 2021, published 2024).

Columns and labels:
[1] = tested on: asthma mouse models with obvious pulmonary inflammation; assay: Anti-inflammatory effect in asthma mouse models (eosinophilic granulocytes in alveolar lavage fluid, flow cytometry); format: in vivo, Balb/c mice; conditions: for Proportion of eosinophilic granulocytes (EOs): white blood cells of alveolar lavage fluid, day 39, negative control group 17.05
Procedure: Firstly, Kudinoside A solutions at different concentrations were prepared, and specific steps were as follows: • (1) Preparation of 15 mg/mL stock solution of the crystal form A of Kudinoside A: 0.50990 g of the crystal form A of Kudinoside A obtained in Example 1 was dissolved in 33.993 mL of propylene glycol under sonication to obtain about […] of 15 mg/mL stock solution of the crystal form A of Kudinoside A, which was stored at room temperature in the dark; • (2) Preparation of 1.5 mg/mL Kudinoside A solution: 2 mL of the 15 mg/mL stock solution of the crystal form A of Kudinoside A was measured out and diluted with 18 mL of 25% propylene glycol to obtain 20 mL of 1.5 mg/mL Kudinoside A solution, and the solution was freshly prepared before use. • (3) Preparation of 0.3 mg/mL Kudinoside A solution: 4 mL of the 1.5 mg/mL Kudinoside A solution was measured out and diluted with 16 mL of 32.5% propylene glycol to obtain 20 mL of 0.3 mg/mL Kudinoside A solution, and the solution was freshly prepared before use. • (4) Preparation of 0.06 mg/mL Kudinoside A solution: 3 mL of the 0.3 mg/mL Kudinoside A solution was measured out and diluted with 12 mL of 32.5% propylene glycol to obtain 15 mL of […] Kudinoside A solution, and the solution was freshly prepared before use.
Then, asthma mouse models with obvious pulmonary inflammation were constructed: 100 μL of 6 mg/mL chicken ovalbumin and 4 mg of aluminum hydroxide were injected intraperitoneally to Balb/c mice on day 1, 100 μL of 3.6 mg/mL chicken ovalbumin and 4 mg of aluminum hydroxide were injected on day 8, 100 μL of 1 mg/mL chicken ovalbumin and 4 mg of aluminum hydroxide were injected on day 15, and 6 mL of 2% chicken ovalbumin was administered by nebulization for exciting of 30 min every day from day 20 to day 23, thus constructing asthma mouse models with obvious pulmonary inflammation. For the mice in the blank control group, 100 μL of PBS was used instead of chicken ovalbumin.
Finally, the nebulization treatment was performed: from day 24, the Kudinoside A solutions at different concentrations (0.06 mg/mL, 0.3 mg/mL, and 1.5 mg/mL) were each administered by nebulization twice daily (30 min for each time, 12 mL in total) for treatment, and 6 mL of 2% chicken ovalbumin was administered by nebulization for exciting of 30 min 1 h after the nebulization treatment, and the administration and excitation were performed for 15 days according to this scheme; sampling was carried out 24 h after the last administration and excitation experiment, i.e., on day 39, and the Kudinoside A solution at the corresponding nebulization treatment concentration was administered twice (30 min for each time, 12 mL in total) for treatment before the sampling. The above was the scheme for the experimental groups of the nebulization treatment with Kudinoside A at different doses, and the mice in the negative control group were administered with 30% propylene glycol instead of Kudinoside A for nebulization.
Flow cytometry was adopted to detect proportion of eosinophilic granulocytes (EOs) in white blood cells of mouse alveolar lavage fluid samples. The blank group had 15 mice, the negative control group had 12 mice, and the high-, medium-, and low-concentration Kudinoside A experimental groups had 18 mice, 13 mice, and 14 mice, respectively.

bronchial smooth muscle = assay: Relaxation effect on bronchial smooth muscle (bronchial ring tension); design: species or system C57BL/6J mice; conditions: for Average percentage of tension relaxation: bronchial rings pre-constricted, 20 minutes after adding
Procedure: Firstly, Kudinoside A solutions with different concentrations were prepared: 0.3253 g of the crystal form A of the Kudinoside A obtained in Example 1 was dissolved in 1 mL of dimethyl sulfoxide (DMSO) to prepare a stock solution of the crystal form A of Kudinoside A, and then the stock solution was diluted in sequence with DMSO into solutions of the crystal form A of Kudinoside A at concentrations of 1 μM, 3.2 μM, 10 μM, and 32 μM.
Then, bronchial rings were prepared: C57BL/6J mice aged 6 weeks were killed by breaking the neck, left and right bronchi were taken out and subjected to bronchia dissection under a stereomicroscope, and the obtained left and right bronchi were cut into bronchial rings with a length of about 2 mm.
Furthermore, the tension of the bronchial ring was balanced: the bronchial ring was fixed with two metal wires and suspended in a water bath at 37° C. containing 5 mL of balanced salt solution (Kreb solution), and a mixed gas containing 5% of carbon dioxide and 95% of oxygen was continuously introduced; then the tension of the bronchial ring was balanced using a tension transducer and re-balanced after pre-stimulation with 60 mM potassium chloride.
Finally, determination of the airway tension and drug administration were performed: the instrument was calibrated, and the detection system was zeroed; a tension value A was recorded when the tension of the mouse was stable; 5 μL of 10 mM […] was added to 5 mL of Kreb solution to make the final concentration to be 10 μM, and 5 μL of each of the solutions of the crystal form A of Kudinoside A at different concentrations (1 μM, 3.2 μM, 10 μM, and 32 μM) was added separately when the constriction tension of the bronchial ring reached the peak; the change of the bronchial tension was observed and recorded, and the percentage of the airway tension relaxation was calculated, as shown in Table 22. The average tension value 1 minute before adding the solution of Kudinoside A is recorded as B, the average tension value 20 minutes after adding Kudinoside A is recorded as C, and the percentage of airway tension relaxation is (B−C)/(B−A).

[2] = Thermogravimetric analysis (TGA); format: physicochemical; conditions: 10 K/min, nitrogen
Text: Thermogravimetric analysis, or TGA for short, refers to a thermal analysis method for measuring the relationship of the mass of a sample to be detected with the change of temperature or time at a programmed temperature, and it is used to study information related to the quality of the sample, such as thermal stability, components of intermediate products possibly generated, etc. It is often used in combination with other thermal analysis methods for comprehensive thermal analysis. Methods for performing thermogravimetric analysis on the crystals are well known to those skilled in the art. In the present invention, the crystal forms A, C, and J of Kudinoside A are determined by using a thermogravimetric analyzer, and the specific measurement conditions are shown in Table 6.

[3] = Conditions under which the crystal forms exist stably; format: physicochemical
[4] = Hygroscopicity test by dynamic vapor sorption (DVS); format: physicochemical; conditions: for weight change when the relative humidity is in the range of 0%-80% / hygroscopicity: DVS graph (FIGS. 1d, 2d, 3d); for hygroscopicity: judgment criteria of Table 7; for Increase in mass (relative humidity: 0%-80%) / Degree of hygroscopicity: DVS, 25° C., relative humidity 0%-80%; for Degree of hygroscopicity: criteria of Table 12
Procedure: Dynamic vapor sorption (DVS) is a test method for analyzing the moisture sorption performance of a sample and recording the moisture sorption isotherm, and it determines the stability of a compound by identifying its sorption capacity for moisture. Methods for performing dynamic vapor sorption analysis on the crystals are well known to those skilled in the art. In the present invention, the hygroscopicity of the crystal forms A, C, and J of Kudinoside A is determined by using a dynamic vapor sorption instrument, and the specific measurement conditions are shown in Table 7.
About 10 mg of each of the crystal forms A, C, and J obtained in Examples 1-3 was tested for its hygroscopicity using a dynamic vapor sorption (DVS) instrument (test conditions: a temperature of 25° C. and a relative humidity of 0%-80%), and the hygroscopicity of each crystal form was judged using the criteria shown in Table 12 below. For the steps and the judgment criteria of the hygroscopicity test, reference is made to the General Requirement 9103-Guidelines for Hygroscopicity in Pharmacopoeia of the People's Republic of China 2020 (Volume IV).

[5] = format: physicochemical; conditions: uncovered, in the dark, 10 days; long-term (25±2° C., RH 65%±10%) and accelerated (40±2° C., RH 75%±10%) conditions
Procedure: 25 mg of the crystal form J was spread in a culture dish and left to stand, with the culture dish uncovered, in the dark for 10 days under long-term conditions (temperature: 25±2° C.; relative humidity: 65%±10%) and acceleration conditions (temperature: 40±2° C.; relative humidity: 75%±10%), and then the crystal form J was subjected to X-ray powder diffraction assay and thermogravimetric analysis. The X-ray powder diffractometer used and parameters thereof are shown in Table 4; the thermogravimetric analyzer used and parameters thereof are shown in Table 6.

Compound: 3β-12α-19α-trihydroxy-ursane-13(18)-ene-28,20β-lactone-3-O-[β-D-glucosyl-(1→3)-[α-L-rham nosyl-(1→2)]-α-L-arabinoside [Kudinoside A]
- Proportion of eosinophilic granulocytes (EOs) ([1]; 0.06 mg/mL solution by nebulization twice daily): 10.14
- Proportion of eosinophilic granulocytes (EOs) ([1]; 0.3 mg/mL solution by nebulization twice daily): 9.56
- Proportion of eosinophilic granulocytes (EOs) ([1]; 1.5 mg/mL solution by nebulization twice daily): 10.81
- anti-inflammatory effect (conclusion) ([1]; asthma mouse models): certain anti-inflammatory effects
- proportion of eosinophilic granulocytes compared with the negative control group ([1]; each dose (0.06, 0.3, 1.5 mg/mL)): decreases
- relaxation effect on bronchial smooth muscle (bronchial smooth muscle; 1 μM): no relaxation effect
- relaxation effect on bronchial smooth muscle (bronchial smooth muscle; 3.2 μM, 10 μM, and 32 μM): relaxed to a certain degree
- Average percentage of tension relaxation (bronchial smooth muscle; Concentration of Kudinoside A 1 μM): −3.57%
- Average percentage of tension relaxation (bronchial smooth muscle; Concentration of Kudinoside A 3.2 μM): 21.40%
- Average percentage of tension relaxation (bronchial smooth muscle; Concentration of Kudinoside A 10 μM): 42.93%
- Average percentage of tension relaxation (bronchial smooth muscle; Concentration of Kudinoside A 32 μM): 50.09%

Compound: C[C@@H]1O[C@@H](O[C@H]2[C@H](O[C@H]3CC[C@]4(C)[C@H]5C[C@H](O)C6=C7[C@]8(CC[C@](C)(OC8=O)[C@@]7(C)O)CC[C@@]6(C)[C@]5(C)CC[C@H]4C3(C)C)OC[C@H](O)[C@@H]2O[C@@H]2O[C@H](CO)[C@@H](O)[C@H](O)[C@H]2O)[C@H](O)[C@H](O)[C@H]1O [crystal form C, Kudinoside A]
- decomposition temperature [2]: about 315 °C
- conditions under which the crystal form exists stably [3]: can exist stably as a dry powder at room temperature
- weight change when the relative humidity is in the range of 0%-80% [4]: about 1.8%
- hygroscopicity [4]: slightly hygroscopic
- Increase in mass (relative humidity: 0%-80%) [4]: 1.8%
- Degree of hygroscopicity [4]: slightly hygroscopicity
- Degree of hygroscopicity ([4]; listed as C): Slightly hygroscopic (The increase in mass is less than 2% but not less than 0.2%)

Compound: C[C@@H]1O[C@@H](O[C@H]2[C@H](O[C@H]3CC[C@]4(C)[C@H]5C[C@H](O)C6=C7[C@]8(CC[C@](C)(OC8=O)[C@@]7(C)O)CC[C@@]6(C)[C@]5(C)CC[C@H]4C3(C)C)OC[C@H](O)[C@@H]2O[C@@H]2O[C@H](CO)[C@@H](O)[C@H](O)[C@H]2O)[C@H](O)[C@H](O)[C@H]1O [crystal form J, Kudinoside A]
- characteristic peaks on the X-ray powder diffraction pattern (crystal form change) [5]: not changed
- weight loss condition (TGA) [5]: not changed
- decomposition temperature [2]: about 324 °C
- conditions under which the crystal form exists stably [3]: can exist stably as a dry powder at room temperature
- weight change when the relative humidity is in the range of 0%-80% [4]: about 4.7%
- hygroscopicity [4]: hygroscopic
- Increase in mass (relative humidity: 0%-80%) [4]: 4.7%
- Degree of hygroscopicity [4]: hygroscopic
- Degree of hygroscopicity ([4]; listed as J): Hygroscopic (The increase in mass is less than 15% but not less than 2%)
